Like-named read-outs stand apart in the source and are kept apart here.
How the values were obtained:
HIV-1 = conditions: for IC50 / IC90: TZM-bl cells
Experimental: (§1) In an embodiment, TZM-bl cells (AIDS Research and Reference Reagent Program, National Institutes of Health, USA) were cultured in complete growth medium that consists of Dulbecco's minimal essential medium (DMEM) supplemented with 10% fetal bovine serum (FBS), 100 U/ml of penicillin-streptomycin (Gibco/Invitrogen, USA), 1 mM of sodium pyruvate (Gibco/Invitrogen, USA), 2 mM of L-glutamine (Gibco/Invitrogen, USA) and 1 mM of non-essential amino acids (Gibco/Invitrogen, USA).
(§2) In an embodiment, the primary isolates 93AOHDC249, 93AOHDC250, 01PTHDECJN and 03PTHCC9, used in this study were previously isolated, titrated and characterized for co-receptor usage. HIV reference strain SG3.1 was obtained by transfection of HEK293T cells with pSG3.1 (HIV-1) plasmid using Fugene 6 reagent (Roche, Switzerland) according to manufacturer's instructions.
(§3) In an embodiment, the 50% tissue culture infectious dose (TCID50) of the virus was determined in a single-round viral infectivity assay using a luciferase reporter gene assay in TZM-bl cells and calculated using the statistical method of Reed and Muench^27.
(§4) In an embodiment, the antiviral activity of the compounds was determined in a single-round assay with TZM-bl cells as previously described ^26. Cells were infected with 200 TCID50 of virus in the presence of serial fold dilutions of the BSS compounds in GM, supplemented with DEAE-dextran (19.7 μg/ml). After 48 h of infection, luciferase expression was quantified with the One-Glow luciferase assay substrate reagent (Promega, USA) according to manufacturer's instructions. Briefly, a volume of reagent equal to that of the culture medium in each well was added. For 96-well plates, typically 100 μl of reagent is added to the cells grown in 100 μl of medium. After an incubation of 3 minutes at room temperature to allow complete cell lysis luminescence was measured in Tecan Infinite M200. Background luminescence was measured by using control wells that contained only target cells and GM. Maraviroc (CCR5 antagonist), T1249 (fusion inhibitor) and AMD3100 (CXCR4 antagonist) were used as positive controls of the antiviral activity. At least two independent experiments were performed for each analysis and each assay was set up in triplicate wells.
(§5) In an embodiment, dose-response curves were estimated from the percentage of inhibition of infection (y-axis) against logo of concentration of each compound (x-axis) using the sigmoidal dose-response equation (variable slope) in GraphPad Prism version 5.00 for Windows (GraphPad Software, San Diego Calif. USA, www.graphpad.com). IC50 and IC90 values were determined from this curve. IC50 and IC90 values correspond to the concentration of compound that inhibits viral replication in 50% and 90%, respectively.

HIV-2 = system: HIV-2
Experimental: as §1, §2, §3, §4, §5

TZM-bl cells = experiment: Cellular viability assay (alamarBlue) in TZM-bl cells
Text: In an embodiment, the cellular cytotoxicity of 17 spiro-β-lactams was investigated in TZM-bl cells using the AlamarBlue assay as recommended by the manufacturer (Invitrogen, USA). TZM-bl, previously designated JC53-bl (clone 13) is a HeLa cell line. The parental cell line (JC.53) stably expresses large amounts of CD4, CCR5 and CXCR4. The TZM-bl cell line was generated from JC.53 cells by introducing separate integrated copies of the luciferase and […] genes under control of the HIV-1 promoter. The TZM-bl cell line is highly sensitive to infection with diverse isolates of HIV.
In an embodiment, the cellular viability assay was carried out as follows: the potential in vitro cytotoxicity of all BSS compounds was evaluated in TZM-bl cells. TZM-bl cells (10000 cells/well in 96-well plates) were incubated in absence or presence of serial-two-fold dilutions of the compounds in growth medium (GM), with starting concentration of 100 μg/ml and a final concentration of 0.781 μg/ml. After 48 hours, cell viability was examined with alamarBlue reagent (Invitrogen, USA) according to manufacturer's instructions. Briefly, 10 μl of alamarBlue reagent was added to each well. After 4 hours at 37° C., the fluorescence was measured in Tecan Infinite M200 (excitation wavelength 550 nm and emission wavelength 600 nm).
In an embodiment, at least two independent experiments have been performed for each cytotoxicity analysis.
In an embodiment, for each assay there were medium controls (only growth medium), cell controls (cells without test compound) and cytotoxicity controls (a compound that kill cells—SDS).

[1] = system: Enterococcus faecalis ATCC 29212; experiment: Anti-bacterial activity, agar diffusion method; type: cell-based; conditions: at the concentration of 1 mg/ml
Experimental: (§6) In an embodiment, anti-bacterial activity of the compounds now disclosed was determined according to CLSI guidelines. The following bacteria were used: reference strains E. coli ATCC 10536, Staphylococcus aureus ATCC 6538, Bacillus subtilis ATCC 6633 and Enterococcus faecalis ATCC 29212; clinical strains of E. coli and Pseudomonas aeruginosa isolated in our laboratory; and strains of Lactobacillus rhamnosus and Lactobacillus plantarum also isolated in our laboratory. The Minimum Inhibitory Concentration (MIC) was determined by the agar diffusion method, in plates of Mueller-Hinton agar or Rogosa agar (for Lactobacilli). Briefly, 10^8 cfu/ml bacterial suspensions were prepared in sterile water and spread in the culture media. Sterile disks containing different concentrations of P3 were placed on the inoculated surface. Plates were incubated at 37° C. for 24 h or 48 h. Lactobacilli were incubated at microaerophilic conditions. A negative control made of sterile water was used. Disks of amoxicillin and imipenem were used as positive controls.

[2] = system: Escherichia coli (Clinical strain); experiment: Anti-bacterial activity, agar diffusion method; type: cell-based; conditions: at the concentration of 1 mg/ml
Experimental: as §6

[3] = system: Escherichia coli ATCC 10536; experiment: Anti-bacterial activity, agar diffusion method; type: cell-based; conditions: at the concentration of 1 mg/ml
Experimental: as §6

Lactobacillus plantarum = experiment: Anti-bacterial activity, agar diffusion method; type: cell-based; conditions: at the concentration of 1 mg/ml
Experimental: as §6

Lactobacillus rhamnosus = experiment: Anti-bacterial activity, agar diffusion method; type: cell-based; conditions: at the concentration of 1 mg/ml
Experimental: as §6

[4] = system: Pseudomonas aeruginosa (Clinical strain); experiment: Anti-bacterial activity, agar diffusion method; type: cell-based; conditions: at the concentration of 1 mg/ml
Experimental: as §6

[5] = system: Staphylococcus aureus ATCC 6538; experiment: Anti-bacterial activity, agar diffusion method; type: cell-based; conditions: at the concentration of 1 mg/ml
Experimental: as §6

[6] = 01PTHDECJN, CCR5 tropic HIV-1 primary isolate
[7] = SG3.1, CXCR4 tropic HIV-1 adapted isolate
[8] = 03PTHCC19, CCR5 tropic HIV-2 isolate, TZM-bl cells, wa = without antiviral activity
[9] = 03PTHCC19, CCR5 tropic HIV-2 isolate, wa = without antiviral activity
[10] = 93AOHDC249, CCR5 tropic HIV-1 primary isolate
[11] = 93AOHDC250, HIV-1 primary isolate
[12] = HIV-2 primary isolate 00PTHCC20, X4, resistant to ABC, ZDV, d4T, ddl, LPV
[13] = HIV-2 primary isolate 00PTHDECT, R5/X4, resistant to DTG
[14] = HIV-2 primary isolate 03PTHCC20, X4, resistant to ABC, ZDV, d4T, ddl, LPV
[15] = HIV-2 primary isolate 03PTHSM9, X4, resistant to SQV, LPV, DRV and TAF
[16] = HIV-2 primary isolate 10PTHSJIG, R5, resistant to RAL, DTG, LPV, SQV, DRV and all NRTIs
[17] = HIV-2 primary isolate 15PTHCEC, X4, resistant to RAL, DTG, LPV, SQV, DRV, ABC, ddl, TDF, TAF, 3TC, d4T and FTC
[18] = HIV-2 primary isolate 15PTHSJIG, R5, resistant to RAL, DTG, 3TC and FTC
[19] = Table 3, HIV-2 isolate 03PTHCC19, R5, sensitive (control isolate), TZM-bl cells

Compound: COC(=O)C1=C[C@@]2(N=N1)C(=O)N1[C@@H](C(=O)O)C(C)(C)S[C@@H]12 [BSS-593, (2,3′R,5R)-5′-(methoxycarbonyl)-3,3-dimethyl-7-oxo-4-thia-1-azaspiro[bicyclo[3.2.0]heptane-6,3′-pyrazole]-2-carboxylic acid]
- anti-HIV activity against HIV-1 (in words) (HIV-1): only active against HIV-1
- MPI (maximum percentage of inhibition) (HIV-1; [6]): 58%
- TI (in vitro therapeutic index, CC50/IC50) (HIV-1; [6]): 4553.31
- IC50 (HIV-1; [6]): 35 nM
- MPI (maximum percentage of inhibition) (HIV-1; [7]): 84%
- TI (in vitro therapeutic index, CC50/IC50) (HIV-1; [7]): 13144.76
- IC50 (HIV-1; [7]): 12 nM
- anti-HIV activity against HIV-2 (in words) (HIV-2): only active against HIV-1
- IC50 (HIV-2; [8]): wa
- IC90 (HIV-2; [8]): wa
- MPI (maximum percentage of inhibition) (HIV-2; [9]): wa
- CC50 (TZM-bl cells; Table 2, TZM-bl cells, 48 hours, alamarBlue): 158000 nM
- CC50 (TZM-bl cells; read-out: CC50 (cytotoxic concentration 50%), Table 1, TZM-bl cells, 48 hours, alamarBlue): 158000 nM
- inhibitory activity [1]: no inhibitory activity
- inhibitory activity [2]: no inhibitory activity
- inhibitory activity [3]: no inhibitory activity
- inhibitory activity (Lactobacillus plantarum): no inhibitory activity
- inhibitory activity (Lactobacillus rhamnosus): no inhibitory activity
- inhibitory activity [4]: no inhibitory activity
- inhibitory activity [5]: no inhibitory activity

Compound: CC1(C)S[C@H]2N(C(=O)[C@]23CC=C(C(=O)OCc2ccccc2)[C@@H]3C(=O)c2ccccc2)[C@H]1C(=O)OC(c1ccccc1)c1ccccc1 [BSS-730A]
- anti-HIV activity against HIV-1 (in words) (HIV-1): potent activity
- MPI (maximum percentage of inhibition) (HIV-1; [10]): 99%
- TI (in vitro therapeutic index, CC50/IC50) (HIV-1; [10]): 2946.32
- IC50 (HIV-1; [10]): 26 nM
- IC90 (HIV-1; [10]): 118 nM
- MPI (maximum percentage of inhibition) (HIV-1; [11]): 94%
- TI (in vitro therapeutic index, CC50/IC50) (HIV-1; [11]): 20247.69
- IC50 (HIV-1; [11]): 4 nM
- IC90 (HIV-1; [11]): 19.7 nM
- inhibition (HIV-1; HIV-1, concentration of 15.21 μM): about 100%
- MPI (maximum percentage of inhibition) (HIV-1; [7]): 99%
- TI (in vitro therapeutic index, CC50/IC50) (HIV-1; [7]): 5584.30
- IC50 (HIV-1; [7]): 14 nM
- IC90 (HIV-1; [7]): 25.2 nM
- anti-HIV activity against HIV-2 (in words) (HIV-2): potent activity
- TI (in vitro therapeutic index, CC50/IC50) (HIV-2; 03PTHCC19, CCR5 tropic HIV-2 isolate): 14029.58
- IC50 (HIV-2; [8]): 5 nM
- IC90 (HIV-2; [8]): 145 nM
- MPI (maximum percentage of inhibition) (HIV-2; [9]): 99%
- inhibition (HIV-2; HIV-2, concentration of 15.21 μM): about 100%
- IC50 (HIV-2; [12]): 18 nM
- IC90 (HIV-2; [12]): 73 nM
- IC50 (HIV-2; [13]): 23 nM
- IC90 (HIV-2; [13]): 57 nM
- IC50 (HIV-2; [14]): 19 nM
- IC90 (HIV-2; [14]): 95 nM
- IC50 (HIV-2; [15]): 16 nM
- IC90 (HIV-2; [15]): 116 nM
- IC50 (HIV-2; [16]): 12 nM
- IC90 (HIV-2; [16]): 32 nM
- IC50 (HIV-2; [17]): 17 nM
- IC90 (HIV-2; [17]): 51 nM
- IC50 (HIV-2; [18]): 18 nM
- IC90 (HIV-2; [18]): 56 nM
- IC50 (HIV-2; [19]): 8 nM
- IC90 (HIV-2; [19]): 64 nM
- CC50 (TZM-bl cells): 76800 nM
- inhibitory activity [1]: no inhibitory activity
- inhibitory activity [2]: no inhibitory activity
- inhibitory activity [3]: no inhibitory activity
- inhibitory activity (Lactobacillus plantarum): no inhibitory activity
- inhibitory activity (Lactobacillus rhamnosus): no inhibitory activity
- inhibitory activity [4]: no inhibitory activity
- inhibitory activity [5]: no inhibitory activity

From patent publication US11666559B2, “Spiro-lactam compounds, process and uses thereof” (UNIVERSIDADE DE COIMBRA, priority 2017, dated 2023)
